According to PubChem BioAssay (NCI):
“And” between values parts separate entries of the source, which are not always exact repeats. Identical values can stand only once.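 Each compound was tested at five concentrations against cells in 96-well plates for 48 hours. The concentration for 50% growth inhibition is given as GI50. TGI: concentration producing complete growth inhibition.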 Where a SMILES comes first, the peptide text is derived from it. [ ]: non-standard residue; d: D form. The star is where a group is joined. NMeF = CN[CH](Cc1ccccc1)C(=O)O; NMeV = CN[CH](C(=O)O)C(C)C; Boc = CC(C)(C)OC(=O)*

Legend:
Experiment in all cases: inhibition of tumour cell growth, NCI panel, 48 h
HOP-18 NSCLC = system: HOP-18 NSCLC
LXFL 529 NSCLC = system: LXFL 529 NSCLC
MALME-3M melanoma = system: MALME-3M melanoma
OVCAR-5 ovarian = system: OVCAR-5 ovarian
RPMI-8226 leukemia = system: RPMI-8226 leukemia
SK-MEL-2 melanoma = system: SK-MEL-2 melanoma
SN12C renal = system: SN12C renal
TK-10 renal = system: TK-10 renal
U251 CNS = system: U251 CNS
HS 578T breast = system: HS 578T breast

| SMILES | TGI (HOP-18 NSCLC) [µM] | TGI (LXFL 529 NSCLC) [µM] | TGI (MALME-3M melanoma) | TGI (OVCAR-5 ovarian) | TGI (RPMI-8226 leukemia) [µM] | TGI (SK-MEL-2 melanoma) [µM] | TGI (SN12C renal) | TGI (TK-10 renal) | TGI (U251 CNS) [µM] | GI50 (HS 578T breast) [µM] | GI50 (MALME-3M melanoma) [µM] | GI50 (OVCAR-5 ovarian) [µM] | GI50 (SK-MEL-2 melanoma) [µM] | GI50 (SN12C renal) [µM] | GI50 (TK-10 renal) [µM] | TGI (HS 578T breast) [µM] |
| --- | --- | --- | --- | --- | --- | --- | --- | --- | --- | --- | --- | --- | --- | --- | --- | --- |
| Cc1nc(N)sc1C(=O)/C=C\c1ccc2c(c1)OCO2 | > 100 | > 100 | > 100 µM | > 100 µM | > 100 | > 100 | > 100 µM | > 100 µM | > 100 | – | – | – | – | – | – | – |
| CCOc1ccccc1NC(=O)CC(C(=O)OC)C(=O)C(=O)OC (stereo not drawn) | > 100 | > 100 | > 100 µM | > 100 µM | > 100 | > 100 | > 100 µM | > 100 µM | > 100 | – | – | – | – | – | – | – |
| CC(C)C(NC(=O)OC(C)(C)C)C(=O)N(C)C(Cc1ccccc1)C(=O)N(C)C(C(=O)O)C(C)C (stereo not drawn) (Boc-Val-[NMeF]-[NMeV]-OH; configuration not given here) | – | > 100 | > 100 µM | – | > 100 | – | > 100 µM | > 100 µM | > 100 | – | – | – | – | – | – | – |
| COc1cc2c(cc1OC)C(CC(=O)NN=C(C)C)NCC2 (stereo not drawn) | > 100 | > 100 | > 100 µM | > 100 µM | > 100 | > 100 | > 100 µM | > 100 µM | > 100 | – | – | – | – | – | – | – |
| Cn1c(=O)c(C(c2ccc([N+](=O)[O-])cc2)c2c(O)c3ccccc3n(C)c2=O)cc2ccccc21 (stereo not drawn) | > 100 | > 100 | 73.2 µM | 92.7 µM | > 100 | > 100 | > 100 µM | 84.7 µM | 66.8 | – | – | – | – | – | – | – |
| Cc1cn(C2CC(O)C(CO)O2)c(=O)n2nnnc12 (stereo not drawn) | > 100 | > 100 | > 100 µM | > 100 µM | > 100 | > 100 | – | > 100 µM | > 100 | – | – | – | – | – | – | – |
| NC(N)=N/N=C(\c1nc2ccc([N+](=O)[O-])cc2[nH]c1=O)C(O)c1ccc([N+](=O)[O-])cc1 (stereo not drawn) | – | > 100 | > 100 µM | > 100 µM | > 100 | – | > 100 µM | – | > 100 | – | – | – | – | – | – | – |
| COC1(OC)C2(Cl)C(Cl)=C(Cl)C1(Cl)C1C=CC=CC12 (stereo not drawn) | – | > 100 | > 100 µM | > 100 µM | > 100 | 63 | > 100 µM | > 100 µM | > 100 | – | – | – | – | – | – | – |
| COc1ccccc1CCc1cc(OC)c(OC)c(OC)c1 | > 100 | > 100 | > 100 µM | 51.3 µM | 68.8 | – | > 100 µM | > 100 µM | > 100 | – | – | – | – | – | – | – |
| COc1cc2c(c(OC)c1OC)-c1ccc(OC)c(=O)cc1[C@@H](NC(=O)c1ccccc1)CC2 | > 100 | > 100 | 30 µM and 80.1 µM | 30 µM and > 94.1 µM | > 80.7 | – | 30 µM and > 81.5 µM | 30 µM and > 100 µM | 4.06 | < 0.003 | < 0.003 | < 0.003 | < 0.003 | < 0.003 | 0.0806 | – |
| Cc1cc(Cl)ccc1N=C1NC(=O)C(CC(=O)Nc2ccc([N+](=O)[O-])cc2[N+](=O)[O-])S1 (stereo not drawn) | – | 47.5 | 73.2 µM | 86.8 µM | 53.6 | 46.1 | 90.7 µM | > 100 µM | 59.9 | – | – | – | – | – | – | – |
| COc1ccc(C(=O)C(C(=O)CCC(=O)Nc2cccc(Cl)c2)c2ccc(OC)cc2)cc1 (stereo not drawn) | > 100 | > 100 | > 100 µM | > 100 µM | > 100 | > 100 | > 100 µM | > 100 µM | > 100 | – | – | – | – | – | – | – |
| Cc1cccc(NC(=O)/C(=N\NC(C)(C)C)C2NC(=S)NC2=O)c1C (stereo not drawn) | – | > 100 | > 100 µM | > 100 µM | > 100 | > 100 | – | > 100 µM | > 100 | – | – | – | – | – | – | – |
| N#CC(NNC(=O)Cc1ccccc1)c1c(O)ccc2ccccc12 (stereo not drawn) | 35.4 | – | 30.2 µM | > 43.5 µM | > 60.1 | 26.9 | 61.3 µM | 80.4 µM | 45 | – | – | – | – | – | – | 50.5 |
| COC(=O)C1=C(C)N(NC(=O)OC(C)(C)C)C(=O)C1=P(c1ccccc1)(c1ccccc1)c1ccccc1 | > 100 | > 100 | > 100 µM | > 100 µM | > 100 | > 100 | > 100 µM | > 100 µM | > 100 | – | – | – | – | – | – | – |
| CC(C)(C)c1ccc2c(c1)S(=O)(=O)Nc1ccccc1NS(=O)(=O)c1cc(C(C)(C)C)ccc1OCCOCCOCCO2 | > 100 | – | 97 µM | > 100 µM | – | > 100 | > 100 µM | > 100 µM | > 100 | – | – | – | – | – | – | – |
| CC1(C)SCc2nc3ncccc3n21 | – | > 100 | > 100 µM | > 100 µM | > 100 | > 100 | > 100 µM | > 100 µM | > 100 | – | – | – | – | – | – | – |
| COC(=O)/C(=N\Nc1nnc(C)n1N)C(C#N)c1ccc(Cl)cc1 (stereo not drawn) | > 100 | > 100 | > 100 µM | > 100 µM | > 100 | > 100 | > 100 µM | > 100 µM | > 100 | – | – | – | – | – | – | – |
| CC1CC[C@]2(C(=O)O)CCC3(C)C(=CC(=O)C4[C@@]5(C)CCC(=O)C(C)(C)C5CC[C@]43C)[C@@H]2[C@H]1C (stereo partly drawn) | 94.6 | > 100 | 80.3 µM | – | – | – | > 100 µM | 90.2 µM | 98.8 | – | – | – | – | – | – | – |
| O=C(Cc1ccccc1)NN1C(=O)C(Cl)C1c1cc(Br)ccc1O (stereo not drawn) | > 100 | > 100 | > 100 µM | > 100 µM | > 100 | > 100 | > 100 µM | > 100 µM | 32.6 | – | – | – | – | – | – | – |
| CCOC(=O)C1=C(C)N(NC(=O)Nc2ccccc2)C(=O)C1=P(c1ccccc1)(c1ccccc1)c1ccccc1 | > 100 | > 100 | > 100 µM | > 100 µM | 82.5 | 98.3 | > 100 µM | > 100 µM | > 100 | – | – | – | – | – | – | – |
| COc1cc(C(C)O)c[n+](CCc2c[nH]c3ccccc23)c1 (stereo not drawn) | – | > 100 | > 100 µM | – | > 100 | > 100 | > 100 µM | > 100 µM | > 100 | – | – | – | – | – | – | – |
